According to paper PMC11240878, “Synthesis, enzyme inhibition assay, and molecular modeling study of novel pyrazolines linked to 4-methylsulfonylphenyl scaffold: antitumor activity and cell cycle analysis” (RSC Advances, 2024):

Key:
Assay type in all cases: cell-based, human
59 cancer cell lines = test: NCI 59 cancer cell line panel, single dose; details: for MG% (mean growth percent): 10 μM single dose, 59 cell lines
MOLT-4 = test: NCI single-dose GI%, leukemia; details: MOLT-4, leukemia; 10.0 μM in one dose
RPMI-8226 = test: NCI single-dose GI%, leukemia; details: RPMI-8226, leukemia; 10.0 μM in one dose
SR = test: NCI single-dose GI%, leukemia; details: 10.0 μM in one dose
EKVX = test: NCI single-dose GI%, NSC lung; details: 10.0 μM in one dose
NCI-H226 = test: NCI single-dose GI%, NSC lung; details: 10.0 μM in one dose
NCI-H23 = test: NCI single-dose GI%, NSC lung; details: 10.0 μM in one dose
HCT-116 = test: NCI single-dose GI%, colon; details: HCT-116, colon; 10.0 μM in one dose
HCT-15 = test: NCI single-dose GI%, colon; details: HCT-15, colon; 10.0 μM in one dose
HT29 = test: NCI single-dose GI%, colon; details: 10.0 μM in one dose
SF-295 = test: NCI single-dose GI%, CNS; details: SF-295, CNS; 10.0 μM in one dose
SF-539 = test: NCI single-dose GI%, CNS; details: SF-539, CNS; 10.0 μM in one dose
U251 = test: NCI single-dose GI%, CNS; details: 10.0 μM in one dose
LOX IMVI = test: NCI single-dose GI%, melanoma; details: 10.0 μM in one dose
A498 = test: NCI single-dose GI%, renal; details: 10.0 μM in one dose
PC-3 = test: NCI single-dose GI%, prostate; details: PC-3, prostate; 10.0 μM in one dose
DU-145 = test: NCI single-dose GI%, prostate; details: DU-145, prostate; 10.0 μM in one dose
MDA-MB-231/ATCC = test: NCI single-dose GI%, breast; details: 10.0 μM in one dose
T-47D = test: NCI single-dose GI%, breast; details: 10.0 μM in one dose
MDA-MB-468 = test: NCI single-dose GI%, breast; details: MDA-MB-468, breast; 10.0 μM in one dose

## Cc1ccc(NC(=O)c2ccc(CN3CCN(C)CC3)cc2)cc1Nc1nccc(-c2cccnc2)n1 [Imatinib, reference compound]
59 cancer cell lines
  MG% (mean growth percent): 92.62%
59 cancer cell lines; listed as imatinib
  MG% (mean growth percent): 92.62%
59 cancer cell lines; CNS cancer subpanel, 10 μM
  GI% range, CNS cancer: 11–25%
59 cancer cell lines; NSCLC subpanel, 10 μM
  GI% range, NSCLC: 11–17%
59 cancer cell lines; all subpanels, 10 μM
  GI% range against most of the cancer cell lines tested: < 10–47%
59 cancer cell lines; breast cancer subpanel, 10 μM
  GI% range, breast cancer: 11–29%
59 cancer cell lines; colon cancer subpanel, 10 μM
  GI% range, colon cancer: 12–47%
59 cancer cell lines; leukemia subpanel, 10 μM
  GI% range, leukemia: 13–18%
59 cancer cell lines; melanoma subpanel, 10 μM
  GI% range, melanoma: 12–22%
59 cancer cell lines; ovarian cancer subpanel, 10 μM
  GI% range, ovarian cancer: < 10%
59 cancer cell lines; prostate cancer subpanel, 10 μM
  GI% range, prostate cancer: 11–14%
59 cancer cell lines; renal cancer subpanel, 10 μM
  GI% range, renal cancer: < 10–14%
MOLT-4
  GI%: 18%
RPMI-8226
  GI%: 12.6%
SR
  GI%: 14.6%
EKVX
  GI%: 15.7%
NCI-H226
  GI%: 10.6%
NCI-H23
  GI%: 17.1%
HCT-116
  GI%: 18.6%
HCT-15
  GI%: 11.5%
HT29
  GI%: 47.1%
SF-295
  GI%: 15.1%
SF-539
  GI%: 24.5%
U251
  GI%: 10.6%
LOX IMVI
  GI%: 11.6%
A498
  GI%: 13.7%
PC-3
  GI%: 10.6%
DU-145
  GI%: 14.4%
MDA-MB-231/ATCC
  GI%: 11.2%
T-47D
  GI%: 18.6%
MDA-MB-468
  GI%: 29.1%
